Measured values as given in US11919902B2, “Aryl-bipyridine amine derivatives as phosphatidylinositol phosphate kinase inhibitors” (HiberCell, Inc., priority 2017, dated 2024).

Assays:
GST tagged PIP4KtypeIIA = molecular target: T1, GST tagged PIP4KtypeIIA (Homo sapiens, UniProt P48426); experiment: ADP-glo kinase assay PIP4K 2A (PIP4KtypeIIA inhibition assay); format: biochemical; conditions: Table 3; compounds listed under IC50 range headings; 10 uM ATP, 0.5 nM PIP4KIIA
T1 construct: made in house; host or cells: E. coli
T1 sequence (P48426 1-406): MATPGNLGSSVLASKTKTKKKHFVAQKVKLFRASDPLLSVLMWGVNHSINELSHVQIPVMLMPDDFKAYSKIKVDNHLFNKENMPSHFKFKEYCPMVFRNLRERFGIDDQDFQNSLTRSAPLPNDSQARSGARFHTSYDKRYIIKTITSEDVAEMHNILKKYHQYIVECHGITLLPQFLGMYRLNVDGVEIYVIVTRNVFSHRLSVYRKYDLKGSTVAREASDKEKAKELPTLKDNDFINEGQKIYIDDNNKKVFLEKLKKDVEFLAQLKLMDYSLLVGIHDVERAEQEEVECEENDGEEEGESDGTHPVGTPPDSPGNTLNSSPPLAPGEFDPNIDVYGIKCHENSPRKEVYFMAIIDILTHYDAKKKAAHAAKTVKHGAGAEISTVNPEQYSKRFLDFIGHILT
From the text: GST tagged PIP4KtypeIIA and B enzymes were overexpressed in E. Coli and purified to >80% homogeneity. Phosphatidyl inositol-5-phosphate (PI5P, Cat. #850152, Avanti Polar Lipids Inc.) was used as the lipid substrate and phosphatidyl ethanolamine (DOPE 18:1, Cat. #850725, Avanti Polar Lipids Inc.) was used as the carrier lipid for assays. Ultrapure ATP and GTP was purchased from Bellbrooke Labs. ADP Glo reagents were obtained from Promega. Transcreener FI reagent was obtained from Bellbrooke labs.
1. HEPES buffer mix: 200 mM HEPES pH 7.4, 50 mM MgCl2, 0.05% v/v triton×100
2. HNE buffer: 20 mM HEPES, pH 7.4, 100 mM NaCl, 0.5 mM EGTA
3. H:E buffer: 30 mM HEPES, pH 7.4, 1 mM EGTA
Enzyme preparation: GST-tagged PIP4KtypeIIA (5 uL, 1.43 mg/mL) was diluted (1:10) to 50 uL using HNE buffer. From the 1:10 diluted stock, a 6.4 uL aliquot was diluted further to 5 mL using HNE buffer to yield 5× enzyme stock (2.5 nM).
Lipid Preparation: In a 10 mL pyrex glass vial, lug of PI5P and lug of DOPE were suspended in 2.5 mL of HEPES buffer mix and 2.5 mL of H:E buffer. The contents were mixed and sonicated for 3 min to yield a translucent lipid stock.
Compound Preparation: Compounds were stored as 5 mM stocks in neat DMSO as room temperature in glass vials. 5 mM stocks were diluted to 2 mM and then serially diluted (3×) in neat DMSO in 96 well polypropylene plates. From the serially diluted stocks, 3 uL was delivered into 250 uL of 25% DMSO (in water) to generate 5× compound stocks. Typically, the highest compound conc. was 24 uM.
The assay volume was kept at 25 uL. To each well of the reaction plate, 10 uL of lipid stock (1:1 ratio PI5P:DOPE) was delivered. This was followed by the addition of 5 uL of compound in 25% DMSO. Then, to each well, 5 uL of 2.5 nM (5×) typeIIA enzyme was delivered. The contents were mixed well and incubated for 1 h at 27 C. After 1 h, reaction was initiated by adding 5 uL of 50 uM ATP and the contents were mixed well with a multi-channel pipetteman. The final concentration of the reagents are as follows: 50 mM HEPES, pH 7.3, 10 mM MgCl2, 20 mM NaCl, 0.01% v/v triton-X100, 5% DMSO, 10 uM ATP, 80 uM (2 ug) PI5P, 2 ug DOPE, and 0.5 nM PIP4KIIA. Typically, the highest conc. of compounds was 4.8 uM and the lowest conc. was 0.
After 1 hr, the reaction was quenched by adding 25 uL of ADP Glo reagent. The contents were incubated for 1 hr. Afterwards, 50 uL of kinase detection reagent was delivered. The contents were incubated for another hour. The luminescence was read using Molecular Devices Paradigm plate reader. […] The blanks were averaged and subtracted from all other wells. Using a calibration curve, RLU was converted to uM ADP (product). IC50 was calculated by plotting the residual activity (expressed as % No inhibitor control) vs. log [Inh. conc.]

GST tagged PIP4KtypeIIB = molecular target: T2, GST tagged PIP4KtypeIIB (Homo sapiens, UniProt P78356); experiment: Trans-FI P kinase assay PIP4K2B (PIP4KtypeIIB inhibition assay); format: biochemical; conditions: Table 4; compounds listed under IC50 range headings; 100 uM GTP, 5 nM PIP4KIIB; read-out: Trans-FI P kinase assays: PIP4K2B IC50
T2 construct: made in house; host or cells: E. coli
T2 sequence (P78356 1-416): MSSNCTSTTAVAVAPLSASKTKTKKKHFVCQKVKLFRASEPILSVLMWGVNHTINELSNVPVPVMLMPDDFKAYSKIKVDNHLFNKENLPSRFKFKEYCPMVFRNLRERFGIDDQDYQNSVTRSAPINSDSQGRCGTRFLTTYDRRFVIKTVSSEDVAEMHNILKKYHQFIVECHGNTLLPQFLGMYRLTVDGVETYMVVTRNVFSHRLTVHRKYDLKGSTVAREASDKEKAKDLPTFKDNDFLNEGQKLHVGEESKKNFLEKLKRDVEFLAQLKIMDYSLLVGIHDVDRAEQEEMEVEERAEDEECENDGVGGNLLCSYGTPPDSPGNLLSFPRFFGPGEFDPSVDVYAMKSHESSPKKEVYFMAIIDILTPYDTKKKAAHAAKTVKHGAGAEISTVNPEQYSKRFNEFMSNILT
Procedure, shortened: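 Purified GST-PIP4KIIB (5 nM final), 1 h preincubation with compound at 27 C, then 2 h reaction with 100 uM GTP and 80 uM PI5P plus DOPE carrier lipid in pH 7.3 HEPES/MgCl2/Triton buffer with 5% DMSO. GDP read by Transcreener FI fluorescence against a calibration curve; IC50 from % no-inhibitor activity vs log concentration.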

[1] = molecular target: T3, PIP4K2A (full length protein, SignalChem) (Homo sapiens, UniProt P48426); experiment: Kinase Assay PIP4K2 A (Sprint); ADP-Glo biochemical assay; conditions: Table 2; compounds listed under IC50 range headings
T3 construct: 4 nM PIP4K2A (full length protein, SignalChem); purchased SignalChem
T3 sequence (P48426 1-406): T1 sequence (P48426 1-406)
Procedure, shortened: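 Compounds (10-point, 3-fold dilutions) were pre-incubated 15 min at RT with an enzyme/substrate mix of 4 nM full-length PIP4K2A and 100 μM PI(5)P diC8 in 20 mM MOPS pH 7.2, 25 mM MgCl2, 0.005% Tween 20. A 60 μM ATP solution was added, reaction 1 h RT; ADP read by ADP-Glo luminescence, IC50 fitted from % inhibition vs DMSO.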

Compound	IC50 (GST tagged PIP4KtypeIIA)	IC50 (GST tagged PIP4KtypeIIB)	IC50 [1]
O=C1CCCN1c1ccc(-c2cncc(-c3ncnc4nc(C5CCC5)[nH]c34)c2)cc1 [Example 289, 1-(4-(5-(8-cyclobutyl-7H-purin-6-yl)pyridin-3-yl)phenyl)pyrrolidin-2-one]	2500 to 5000 nM	1000 to 2500 nM	
C[C@@H]1CC(=O)N(c2ccc(-c3cncc(-c4ccnc5c4cc4n5CCN(C)C4=O)c3)cc2)C1 [Example 198, (R)-7-methyl-4-(5-(4-(4-methyl-2-oxopyrrolidin-1-yl)phenyl)pyridin-3-yl)-8,9-dihydropyrido[3′,2′:4,5]pyrrolo[1,2-a]pyrazin-6(7H)-one]	100 to 1000 nM	10 to 100 nM	
O=C1CCCN1c1ccc(-c2cncc(-c3csc4ncccc34)c2)cc1 [Example 292, 1-(4-(5-(thieno[2,3-b]pyridin-3-yl)pyridin-3-yl)phenyl)pyrrolidin-2-one]	100 to 1000 nM	100 to 1000 nM	
CC(C)c1[nH]c2ncc(C(=O)N(C)C)cc2c1-c1cncc(-c2ccc(N3CCCC3=O)cc2)c1 [Example 269, 2-isopropyl-N,N-dimethyl-3-(5-(4-(2-oxopyrrolidin-1-yl)phenyl)pyridin-3-yl)-1H-pyrrolo[2,3-b]pyridine-5-carboxamide]	100 to 1000 nM	100 to 1000 nM	
CC(C)c1c(-c2cncc(-c3ccc(N4CCCC4=O)cc3)c2)c2cc(C(=O)N(C)C)cnc2n1C [Example 266, 2-isopropyl-N,N,1-trimethyl-3-(5-(4-(2-oxopyrrolidin-1-yl)phenyl)pyridin-3-yl)-1H-pyrrolo[2,3-b]pyridine-5-carboxamide]	2500 to 5000 nM	1000 to 2500 nM	
CN(C)C(=O)c1ccc(-c2cc(-c3cc(Nc4cc(N)ccn4)ncn3)cnc2N)nc1 [Example 222, 2′-amino-5′-(6-((4-aminopyridin-2-yl)amino)pyrimidin-4-yl)-N,N-dimethyl-[2,3′-bipyridine]-5-carboxamide]	> 5000 nM	2500 to 5000 nM	
C[C@H]1CC(=O)N(c2ccc(-c3cncc(-c4ccnc5c4cc4n5CCN(C)C4=O)c3)cc2)C1 [Example 199, (S)-7-methyl-4-(5-(4-(4-methyl-2-oxopyrrolidin-1-yl)phenyl)pyridin-3-yl)-8,9-dihydropyrido[3′,2′:4,5]pyrrolo[1,2-a]pyrazin-6(7H)-one]	100 to 1000 nM	10 to 100 nM	
CC(C)c1cc(=O)n2ncc(-c3cncc(-c4ccc(N5CCCC5=O)cc4)c3)c2[nH]1 [Example 281, 5-isopropyl-3-(5-(4-(2-oxopyrrolidin-1-yl)phenyl)pyridin-3-yl)pyrazolo[1,5-a]pyrimidin-7(4H)-one]	1000 to 2500 nM	1000 to 2500 nM	
CN1CCn2c(cc3c(-c4cncc(-c5ccc(N6CC7(CC7)CC6=O)cc5)c4)ccnc32)C1=O [Example 201, 7-methyl-4-(5-(4-(6-oxo-5-azaspiro[2.4]heptan-5-yl)phenyl)pyridin-3-yl)-8,9-dihydropyrido[3′,2′:4,5]pyrrolo[1,2-a]pyrazin-6(7H)-one]	100 to 1000 nM	10 to 100 nM	
CN(C)C(=O)c1ccc(-c2cc(-c3ccnc4[nH]c(C(=O)NCC(=O)O)cc34)cnc2N)nc1 [Example 145, (4-(2′-amino-5-(dimethylcarbamoyl)-[2,3′-bipyridin]-5′-yl)-1H-pyrrolo[2,3-b]pyridine-2-carbonyl)glycine]	100 to 1000 nM	100 to 1000 nM	
O=C(NCc1cccnc1)c1cc2c(-c3cncc(-c4ccc(N5CCCC5=O)cc4)c3)ccnc2[nH]1 [Example 238, 4-(5-(4-(2-oxopyrrolidin-1-yl)phenyl)pyridin-3-yl)-N-(pyridin-3-ylmethyl)-1H-pyrrolo[2,3-b]pyridine-2-carboxamide]	100 to 1000 nM	10 to 100 nM	
COC(=O)c1cc2c(-c3cncc(-c4ccc(N5CCCC5=O)cc4)c3)c(C)cnc2[nH]1 [Example 290, methyl 5-methyl-4-(5-(4-(2-oxopyrrolidin-1-yl)phenyl)pyridin-3-yl)-1H-pyrrolo[2,3-b]pyridine-2-carboxylate]	100 to 1000 nM	100 to 1000 nM	
CN(C)C(=O)c1ccc(-c2cc(-c3ccnc4[nH]c(C(=O)NC5CCOCC5)cc34)cnc2N)nc1 [Example 137, 4-(2′-amino-5-(dimethylcarbamoyl)-[2,3′-bipyridin]-5′-yl)-N-(tetrahydro-2H-pyran-4-yl)-1H-pyrrolo[2,3-b]pyridine-2-carboxamide]	100 to 1000 nM	10 to 100 nM	
CCc1cccc2c1CC(=O)N2c1ccc(-c2cncc(-c3ccnc4c3cc3n4CCN(C)C3=O)c2)cc1 [Example 209, 4-(5-(4-(4-ethyl-2-oxoindolin-1-yl)phenyl)pyridin-3-yl)-7-methyl-8,9-dihydropyrido[3′,2′:4,5]pyrrolo[1,2-a]pyrazin-6(7H)-one]	> 5000 nM	1000 to 2500 nM	
Cc1c(-c2ccc(N3CCCC3=O)cc2)cncc1-c1cn(C)c2ncc(C(C)O)cc12 (stereo not drawn) [Example 196, 1-(4-(5-(5-(1-hydroxyethyl)-1-methyl-1H-pyrrolo[2,3-b]pyridin-3-yl)-4-methylpyridin-3-yl)phenyl)pyrrolidin-2-one]	100 to 1000 nM		
CC[C@H](C)n1cnnc1-c1ccc(-c2cncc(-c3ccnc4c3cc3n4CCN(C)C3=O)c2)cc1 [Example 360, (S)-4-(5-(4-(4-(sec-butyl)-4H-1,2,4-triazol-3-yl)phenyl)pyridin-3-yl)-7-methyl-8,9-dihydropyrido[3′,2′:4,5]pyrrolo[1,2-a]pyrazin-6(7H)-one]		10 to 100 nM	100 to 1000 nM
Cc1[nH]nc2nccc(-c3cncc(-c4ccc(N5CCCC5=O)cc4)c3)c12 [Example 318, 1-(4-(5-(3-methyl-2H-pyrazolo[3,4-b]pyridin-4-yl)pyridin-3-yl)phenyl)pyrrolidin-2-one]		100 to 1000 nM	1000 to 2500 nM
